# Test results reported in patent US7563819B1, “Esters of 5-aminolevulinic acid as photosensitizing agents in photochemotherapy” (Photocure ASA, priority 2000, dated 2009).
# Entries after “also recorded” stand apart in the source; their conditions may differ.
# How the values were obtained:
# WiDr cells = assay: Measurement of porphyrin formation in cell culture in vitro; assay type: cell-based; conditions: 4 h incubation; for POTENCY (Relative ability to induce porphyrin formation): 0.001-1 mM, relative to ALA = 1; for potency in inducing cellular porphyrin formation relative to ALA: fold versus ALA; for ALA concentration giving the same porphyrin formation as 0.001 mM ester: ester at 0.001 mM
# Experimental: The test compounds were dissolved in DMSO to a concentration of 100 mM (stock solution). Appropriate concentrations were obtained by dilution of the stock solutions with phosphate-buffered saline (PBS) or culture medium.
# WiDr cells, derived form a primary adenocarcinoma of the rectosigmoid colon, were subcultured in RPMI 1640 medium (Gibco) containing 10% fetal calf serum, 100 U/ml penicillin, 100 μg/ml streptomycin and 1% glutamine. Cells were split 1:100 twice a week, and maintained at 37° C. and 5. % CO2 in a humid environment.
# 5×10^5 WiDr cells in 2 ml of RPMI medium as described in the previous paragraph were added to each well in 6-well plastic tissue-culture plates (Nunc) and left for 48 hr at 37° C. and 5% CO2 in a humid environment for proper attachment to the substratum. The cells were then washed twice with RPMI 1640-medium without serum, followed by the addition to the wells of the appropriate dilutions of the test compounds in 2 ml of fresh culture medium to final concentrations of 0.001, 0.01, 0.1 and 1 mM in duplicate. The cells were incubated at 37° C. for four hours.
# After treatment as described in the paragraph “treatment conditions” the cells were washed twice with PBS and brought into a solution of 1M HClO4 in 50% MeOH by scraping the cells off the substratum by means of a Costar cell scraper. Cell debris was removed by centrifugation. The porphyrin content of each sample was determined fluorometrically using a Perkin Elmer LS50B spectrofluorimeter (excitation at 407 nm, emission was measured at 606 nm using a long pass cut-off filter (530 nm) on the emission side). The fluorescence in each sample was calculated relative to the protein content in control cells as measured by the Bradford method.
# murine skin = assay: Porphyrin formation (skin fluorescence) after topical application onto murine skin; assay type: in vivo, Female Balb/c athymic nude mice; conditions: topical cream on nude mouse skin, 1% (w/w), except compounds 16, 29, 30, 31 at 3% and 17-19 at 10%
# Experimental: The test compounds were formulated in Unguentum Merck (cream base available from Merck, consisting of silicon dioxide, paraffin liq., vaseline, album, cetostearol, polysorbat. 40, glycerol monostearate, Miglyol®812 (a mixture of plant fatty acids), polypropyleneglycol, and purified water) to the desired concentration. Concentrations are given as % (w/w) calculated as hydrochlorides. The formulations were prepared the day before the experiment commenced and stored in the refrigerator until the day of use.
# Female Balb/c athymic nude mice, weighing about 22 g, obtained from the Department of Laboratory Animals, The Norwegian Radium Hospital (Montebello, Oslo, Norway) were used in the studies.
# Three mice per group was used. Each mouse received 0.05-0.1 g of formulation topically applied at the right flank of the body, evenly distributed and covered with a dressing (Opsite Flexigrid; Smith and Nephew Medical Ltd., Hull, England). The fiber point measuring device consisted of a bundle of optical fibers connected to a spectrofluorimeter which produced the excitation light of 407 nm. The excitation light, which is able to penetrate 0.1-0.5 mm into the tissue, was led through half of the fibers to the mouse skin. The resulting emission fluorescence spectrum (550-750) nm was collected and led through the remaining fibers into a photomultiplier for quantification.
# After application of the cream formulation, the fluorescence spectrum from porphyrins in the skin was measured by the fiber-optical method at different intervals of time after administration.
# The fluorescence intensity varied from experiment to experiment. Therefore 1% (w/w) hexyl 5-aminolevulinate-HCl was included in each experiment as an internal control.
SMILES,POTENCY (Relative ability to induce porphyrin formation) (WiDr cells),skin fluorescence level after topical application (murine skin),potency in inducing cellular porphyrin formation relative to ALA (WiDr cells),further results
"NCC(=O)CCC(=O)O [ALA, 5-aminolevulinic acid]",1,,,
"CCCCC(C)OC(=O)CCC(=O)CN.Cl (stereo not shown) [Compound 1, 1-methyl-pentyl 5-amino-4-oxopentanoate Hydrochloride]",3,intermediate fluorescence levels,,efficiency in inducing porphyrin formation compared with ALA (WiDr cells; at low concentrations): only slightly better than ALA
"CC(C)c1ccc(COC(=O)CCC(=O)CN)cc1.Cl [Compound 2, 4-Isopropylbenzyl 5-amino-4-oxopentanoate Hydrochloride]",200,intermediate levels of fluorescence,approximately 200 times,
"Cc1ccc(COC(=O)CCC(=O)CN)cc1.Cl [Compound 3, 4-Methylbenzyl 5-amino-4-oxopentanoate Hydrochloride]",200,high and similar levels of fluorescence,approximately 200 times,
"Cl.NCC(=O)CCC(=O)OCc1ccccc1 [Compound 4, Benzyl 5-amino-4-oxopentanoate hydrochloride]",100-600,high levels of fluorescence,,efficiency in inducing cellular porphyrin synthesis compared with ALA (WiDr cells): considerably more efficient than ALA; ALA concentration giving the same porphyrin formation as 0.001 mM ester (WiDr cells): 0.6 mM
"Cl.NCC(=O)CCC(=O)OCCc1ccccc1 [Compound 5, 2-Phenylethyl 5-amino-4-oxopentanoate Hydrochloride]",500,,,"skin fluorescence level after topical application (murine skin; Hydrochloride): low levels of fluorescence; skin fluorescence level after topical application (murine skin; listed as 2-phenyl-ethyl 5-aminolevulinate, Hydrochloride): relatively modest fluorescence levels; efficiency in inducing cellular porphyrin synthesis compared with ALA (WiDr cells): considerably more efficient than ALA; ALA concentration giving the same porphyrin formation as 0.001 mM ester (WiDr cells): 0.4 mM"
"CCCCCCOC(=O)CCC(=O)CN.Cl [Compound 6, hexyl 5-aminolevulinate-HCl, reference compound]",100,highest fluorescence; also recorded: high and similar levels of fluorescence,approximately 100 times,
"Cl.NCC(=O)CCC(=O)OC1CCCCC1 [Compound 7, Cyclohexyl 5-amino-4-oxopentanoate Hydrochloride]",1,low levels of fluorescence,,efficiency in inducing porphyrin formation compared with ALA (WiDr cells; at higher concentrations): less effective than ALA; efficiency in inducing porphyrin formation compared with ALA (WiDr cells; at low concentrations): only slightly more efficient than ALA
"CC(C)CCCOC(=O)CCC(=O)CN.Cl [Compound 8, 4-Methyl-1-pentyl 5-amino-4-oxopentanoate Hydrochloride]",100,high fluorescence levels,approximately 100 times,
"Cl.NCC(=O)CCC(=O)OCc1ccc(C(F)(F)F)cc1 [Compound 9, 4-(Trifluoromethyl)benzyl 5-amino-4-oxopentanoate Hydrochloride]",200,high fluorescence levels,approximately 200 times,
"CC(C)(C)c1ccc(COC(=O)CCC(=O)CN)cc1.Cl [Compound 10, 4-t-Butylbenzyl 5-amino-4-oxopentanoate Hydrochloride]",200,Intermediate fluorescence levels,approximately 200 times,
"Cl.NCC(=O)CCC(=O)OCc1ccc([N+](=O)[O-])cc1 [Compound 11, 4-Nitrobenzyl 5-amino-4-oxopentanoate Hydrochloride]",200,high levels of fluorescence,approximately 200 times,
"CCCC(CC)OC(=O)CCC(=O)CN.Cl (stereo not shown) [Compound 12, 3-Hexyl 5-amino-4-oxopentanoate Hydrochloride]",,gave porphyrin formation,,
"CCCC(C)COC(=O)CCC(=O)CN.Cl (stereo not shown) [Compound 13, 2-Methyl-1-pentyl 5-amino-4-oxopentanoate Hydrochloride]",,gave porphyrin formation,,
"Cl.NCC(=O)CCC(=O)OCCCCc1ccccc1 [Compound 14, 4-Phenyl-1-butyl 5-amino-4-oxopentanoate Hydrochloride]",,only low fluorescence levels,,
"Cl.NCC(=O)CCC(=O)OCc1ccc(F)cc1 [Compound 15, 4-Fluorobenzyl 5-amino-4-oxopentanoate Hydrochloride]",,Slightly lower levels,,
"Cl.NCC(=O)CCC(=O)OCc1ccccc1F [Compound 17, 2-Fluorobenzyl 5-amino-4-oxopentanoate Hydrochloride]",,intermediate/high activities,,
"Cl.NCC(=O)CCC(=O)OCc1c(F)c(F)c(F)c(F)c1F [Compound 18, 2,3,4,5,6-Pentafluorobenzyl 5-amino-4-oxopentanoate Hydrochloride]",,intermediate/high activities,,
"Cl.NCC(=O)CCC(=O)OCc1ccc(Cl)cc1 [Compound 19, 4-Chlorobenzyl 5-amino-4-oxopentanoate Hydrochloride]",,high fluorescence levels,,
"Cl.Cl.NCC(=O)CCC(=O)OCc1cccnc1 [Compound 26, 3-Pyridinylmethyl 5-amino-4-Oxopentanoate Dihydrochloride]",,intermediate fluorescence,,
"Cl.NCC(=O)CCC(=O)OCc1ccc(-c2ccccc2)cc1 [Compound 27, 4-Diphenylmethyl 5-amino-4-oxopentanoate Hydrochloride]",,relatively low fluorescence,,
"COc1ccc(COC(=O)CCC(=O)CN)cc1.Cl [Compound 28, 4-Methoxybenzyl 5-amino-4-oxopentanoate Hydrochloride]",,intermediate fluorescence,,
"CC(=O)OC(C)OC(=O)NCC(=O)CCC(=O)OCc1ccccc1 (stereo not shown) [Compound 30, Benzyl 5-[[1-(acetyloxy)ethoxy]carbonyl]amino-4-oxopentanoate]",,intermediate/high fluorescence,,
